Ki and ED50 data for four compounds are collected here from ChEMBL document CHEMBL1131022, “Synthesis and biological activity of a novel methylamine-bridged enkephalin analogue (MABE): a new route to cyclic peptides and peptidomimetics” (J Med Chem, 1998).

The target in assay [1] is Delta-type opioid receptor (Homo sapiens, UniProt P41143). Briefly: In vitro potency was measured against human Opioid receptor delta 1.
The target of assay [2] is Kappa-type opioid receptor (Homo sapiens, UniProt P41145). Briefly: In vitro potency was measured against human Opioid receptor kappa 1.
The test system of assay [3] is Rattus norvegicus. Briefly: In vivo efficacy was measured using thermal escape assay. Type of assay: functional.
Assay [4] has as its target Mu-type opioid receptor (Homo sapiens, UniProt P35372). Briefly: In vitro potency was measured against human Opioid receptor mu 1.

Sequence of Delta-type opioid receptor (P41143 whole entry): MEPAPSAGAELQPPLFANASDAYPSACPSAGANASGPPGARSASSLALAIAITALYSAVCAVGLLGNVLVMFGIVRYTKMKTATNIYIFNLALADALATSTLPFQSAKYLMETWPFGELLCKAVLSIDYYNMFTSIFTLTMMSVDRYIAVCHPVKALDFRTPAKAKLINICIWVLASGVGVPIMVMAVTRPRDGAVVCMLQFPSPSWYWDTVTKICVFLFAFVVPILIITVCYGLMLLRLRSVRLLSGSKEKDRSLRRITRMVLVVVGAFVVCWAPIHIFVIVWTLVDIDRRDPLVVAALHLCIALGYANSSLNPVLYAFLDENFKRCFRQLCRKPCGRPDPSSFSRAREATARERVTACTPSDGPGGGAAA
Sequence of Kappa-type opioid receptor (P41145 whole entry): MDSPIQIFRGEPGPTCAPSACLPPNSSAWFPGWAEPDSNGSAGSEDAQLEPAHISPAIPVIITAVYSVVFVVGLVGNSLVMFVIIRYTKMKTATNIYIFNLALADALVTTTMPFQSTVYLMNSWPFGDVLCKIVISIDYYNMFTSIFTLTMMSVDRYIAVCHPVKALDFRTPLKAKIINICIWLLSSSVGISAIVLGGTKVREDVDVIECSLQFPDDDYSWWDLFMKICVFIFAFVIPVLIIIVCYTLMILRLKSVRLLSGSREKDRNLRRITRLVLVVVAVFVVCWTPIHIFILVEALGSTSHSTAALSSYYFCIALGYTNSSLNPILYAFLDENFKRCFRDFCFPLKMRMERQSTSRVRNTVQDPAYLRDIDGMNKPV
Sequence of Mu-type opioid receptor (P35372 whole entry): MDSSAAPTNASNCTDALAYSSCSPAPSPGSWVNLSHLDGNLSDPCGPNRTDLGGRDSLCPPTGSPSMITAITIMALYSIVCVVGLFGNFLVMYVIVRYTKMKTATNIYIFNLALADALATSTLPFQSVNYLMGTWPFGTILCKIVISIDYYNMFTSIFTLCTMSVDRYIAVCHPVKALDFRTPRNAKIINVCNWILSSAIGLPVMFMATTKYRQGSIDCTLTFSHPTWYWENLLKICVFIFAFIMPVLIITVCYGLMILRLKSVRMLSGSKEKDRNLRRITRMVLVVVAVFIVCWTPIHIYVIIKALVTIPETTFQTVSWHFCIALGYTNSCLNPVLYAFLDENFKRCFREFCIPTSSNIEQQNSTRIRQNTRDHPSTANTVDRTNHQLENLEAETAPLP

`CN1CCNC(=O)[C@H](Cc2ccccc2)NC(=O)CNC(=O)[C@H](NC(=O)[C@@H](N)Cc2ccc(O)cc2)C1`: the Ki in assay [1] worked out at 2.1 nM; in assay [2], 340 nM; in assay [4], 1.6 nM. In addition, the ED50 in assay [3] came out at 0.027 µg.
The compound `CC1(C)SSC(C)(C)C(NC(=O)[C@@H](N)Cc2ccc(O)cc2)C(=O)NCC(=O)N[C@@H](Cc2ccccc2)C(=O)NC1C(=O)O` (single isomer, unassigned) registered an ED50 in assay [3] of 54 µg.
For `CN1CC[C@]23c4c5ccc(O)c4O[C@H]2[C@@H](O)C=C[C@H]3[C@H]1C5` [MORPHINE], the ED50 in assay [3] was 2.4 µg.
`C[C@@H](NC(=O)[C@@H](N)Cc1ccc(O)cc1)C(=O)NCC(=O)N(C)[C@@H](Cc1ccccc1)C(=O)NCCO` [DAMGO]: the ED50 in assay [3] turned out to be 0.14 µg.

As a reminder, the Ki is a dissociation constant, usually derived from enzyme kinetics or from competition with a known ligand.
